Data published in paper PMC6572338 (2019).

Key:
[1] = tested on: C-mycG4 (Pu-27); C-myc G4 (DNA, G4) TGGGGAGGGTGGGGAGGGTGGGGAAGG; experiment: PCR-stop assay; details: 50 mM KCl; Platinum Supermix, 0.5 uM each oligonucleotide, Pu27rev primer; dose-dependent reduction of product
[2] = tested on: C-mycG4 (Pu-27); C-myc G4 (DNA, G4) TGGGGAGGGTGGGGAGGGTGGGGAAGG; experiment: SPR (Biacore 3000), 1:1 Langmuir kinetics; details: 200 mM KCl, 5 mM MgCl2, 20 mM HEPES pH 7.5, 1% DMSO, 0.005% P-20, immobilised compound
[3] = tested on: C-kit2; C-kit2 G4 (DNA, G4) GGGCGGGCGCGAGGGAGGGG; experiment: SPR (Biacore 3000), 1:1 Langmuir kinetics; details: 200 mM KCl, 5 mM MgCl2; 20 mM HEPES pH 7.5, 1% DMSO, 0.005% P-20; immobilised compound
[4] = tested on: c-myc_G4_2345; Pu21_2345 (DNA, G4) GAGGGTGGGGAGGGTGGGGAA; experiment: SPR (Biacore 3000), 1:1 Langmuir kinetics; details: 200 mM KCl, 5 mM MgCl2, 20 mM HEPES pH 7.5, 1% DMSO, 0.005% P-20, immobilised compound
[5] = tested on: C-kit1; C-kit1 G4 (DNA, G4) AGGGAGGGCGCTGGGAGGAGGG; experiment: SPR (Biacore 3000), 1:1 Langmuir kinetics; details: 200 mM KCl, 5 mM MgCl2; 20 mM HEPES pH 7.5, 1% DMSO, 0.005% P-20; immobilised compound
[6] = tested on: c-myc_G4_1234; Pu21_1234 (DNA, G4) TGGGGAGGGTGGGGAGGGTGG; experiment: SPR (Biacore 3000), 1:1 Langmuir kinetics; details: 200 mM KCl, 5 mM MgCl2, 20 mM HEPES pH 7.5, 1% DMSO, 0.005% P-20, immobilised compound
[7] = tested on: Pu27rev (DNA, single strand) ATCGATCGCTTCTTCGTCCTTCCCCA; experiment: SPR (Biacore 3000); details: 200 mM KCl, 5 mM MgCl2; 20 mM HEPES pH 7.5, 1% DMSO, 0.005% P-20; immobilised compound; NB, oligonucleotide up to 10 uM

Row | binding [1] | KD ([2]; text prints 1.06 µM) [nM] | KD [3] [nM] | KD [4] [nM] | KD [5] [nM] | KD ([6]; text prints 328 nM) [nM] | binding [7] | KD [2] [nM] | KD ([4]; text prints 190 nM) [nM] | KD [6] [nM] | Structure (SMILES)
1 | yes | – | – | – | – | – | – | – | – | – | Cc1cnccc1N1CCN(c2nccc3c2nc(-c2c[nH]c4ccncc24)n3CCOCCOCCN)CC1
2 | – | 1050 | 1700 | 308 | 1100 | 338 | no | – | – | – | Cn1cccc1CN(CC(=O)NCCOCCOCCNC(=O)CCCC[C@@H]1SC[C@@H]2NC(=O)N[C@@H]21)Cc1ccc(OCC(=O)NCc2nc3ccccc3c(=O)[nH]2)c(Cl)c1
3 | – | – | 1400 | – | 807 | – | no | 328 | 197 | 59 | Cc1cnccc1N1CCN(c2nccc3c2nc(-c2c[nH]c4ccncc24)n3CCOCCOCCNC(=O)CCCC[C@@H]2SC[C@@H]3NC(=O)N[C@@H]32)CC1
4 | yes | – | – | – | – | – | – | – | – | – | Cn1cccc1CN(CC(=O)NCCOCCOCCN)Cc1ccc(OCC(=O)NCc2nc3ccccc3c(=O)[nH]2)c(Cl)c1
